Measured values from BindingDB's records for doi:10.1021/cb500893q (University of California Berkeley, 2015).

Target: T1, Platelet-activating factor acetylhydrolase IB subunit alpha2 (Mus musculus, UniProt Q61206)
T1 sequence (Q61206 whole entry): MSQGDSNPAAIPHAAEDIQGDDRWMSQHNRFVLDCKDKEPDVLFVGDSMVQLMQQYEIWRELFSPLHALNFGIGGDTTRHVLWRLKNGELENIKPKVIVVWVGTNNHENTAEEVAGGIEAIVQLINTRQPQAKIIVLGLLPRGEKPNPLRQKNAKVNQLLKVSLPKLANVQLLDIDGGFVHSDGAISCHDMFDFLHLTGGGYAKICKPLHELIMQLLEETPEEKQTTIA
Assay: Competitive ABPP Assays in Proteomes with FP-alkyne
Details: pH 7.5
Method: Total protein concentrations for each fraction were adjusted to 1 mg/mL in PBS (50 μL total reaction volume). Samples were then subjected to click chemistry by the addition of 1 mM CuSO4 (1 μL of a 50x stock in DMSO), followed by TBTA (3 μL of a 17x stock in 4:1 t-butanol:DMSO), then 25 μM Rh-N3 (1 μL of a 50x stock in DMSO) and 1 mM TCEP (1 μL of a 50x stock in DMSO). Reactions were vortexed, incubated for 1 h at 25 °C, and quenched with 4x SDS-PAGE loading buffer and analyzed by in-gel fluorescence scanning.

| SMILES | IC50 [µM] |
| --- | --- |
| CCc1ccc(C2CC=C(C(=O)O)C(c3cccc(Cl)c3)N2S(=O)(=O)c2ccc(C)cc2)cc1 (stereo unspecified) [2-(3-chlorophenyl)-6-(4-ethylphenyl)-1-(4-methylbenzenesulfonyl)-1,2,5,6-tetrahydropyridine-3-carboxylic acid (J8)] | 9.4 |
| COCCNC(=O)C1=CCC(c2ccc(C)cc2)N(S(=O)(=O)c2ccc(C)cc2)C1c1ccc(C(C)(C)C)cc1 (stereo unspecified) [2-(4-(tert-butyl)phenyl)-N-(2-methoxyethyl)-6-(p-tolyl)-1-tosyl-1,2,5,6-tetrahydropyridine-3-carboxamide (JW1041)] | 1.7 |
| Cc1ccc(C2CC=C(C(=O)NC3CCCCC3)C(c3ccc(C(C)(C)C)cc3)N2S(=O)(=O)c2ccc(C)cc2)cc1 (stereo unspecified) [2-(4-(tert-butyl)phenyl)-N-cyclohexyl-6-(p-tolyl)-1-tosyl-1,2,5,6-tetrahydropyridine-3-carboxamide (JW1039)] | > 10 |
| Cc1ccc(C2CC=C(C(=O)NC3CC3)C(c3ccc(C(C)(C)C)cc3)N2S(=O)(=O)c2ccc(C)cc2)cc1 (stereo unspecified) [2-(4-(tert-butyl)phenyl)-N-cyclopropyl-6-(p-tolyl)-1-tosyl-1,2,5,6-tetrahydropyridine-3-carboxamide (JW1038)] | 9.3 |
| CNC(=O)C1=CCC(c2ccc(C)cc2)N(S(=O)(=O)c2ccc(C)cc2)C1c1ccc(C(C)(C)C)cc1 (stereo unspecified) [2-(4-(tert-butyl)phenyl)-N-methyl-6-(p-tolyl)-1-tosyl-1,2,5,6-tetrahydropyridine-3-carboxamide (JW1036)] | > 10 |
| Cc1ccc(S(=O)(=O)N2C(c3ccc(Cl)c(Cl)c3)CC=C(C(=O)O)C2c2ccc(Br)cc2)cc1 (stereo unspecified) [2-(4-bromophenyl)-6-(3,4-dichlorophenyl)-1-(4-methylbenzenesulfonyl)-1,2,5,6-tetrahydropyridine-3-carboxylic acid (K9)] | 1.4 |
| Cc1ccc(C2CC=C(CBr)C(c3ccc(C(C)(C)C)cc3)N2S(=O)(=O)c2ccc(C)cc2)cc1 (stereo unspecified) [5-(bromomethyl)-6-(4-(tert-butyl)phenyl)-2-(p-tolyl)-1-tosyl-1,2,3,6-tetrahydropyridine (JW1058)] | 4.6 |
| COC(=O)C1=CCC(c2ccc(C)cc2)N(S(=O)(=O)c2ccc(C)cc2)C1c1ccc(C(C)(C)C)cc1 (stereo unspecified) [Methyl-2-(4-(tert-butyl)phenyl)-6-(p-tolyl)-1-tosyl-1,2,5,6-tetrahydropyridine-3-carboxylate (JW1068)] | > 10 |
| Cc1ccc(C2CC=C(CNC3CC3)C(c3ccc(C(C)(C)C)cc3)N2S(=O)(=O)c2ccc(C)cc2)cc1 (stereo unspecified) [N-((2-(4-(tert-butyl)phenyl)-6-(p-tolyl)-1-tosyl-1,2,5,6-tetrahydropyridin-3-yl)methyl)cyclopropanamine (JW1061)] | 7.6 |
| C=CCNC(=O)C1=CCC(c2ccc(C)cc2)N(S(=O)(=O)c2ccc(C)cc2)C1c1ccc(C(C)(C)C)cc1 (stereo unspecified) [N-allyl-2-(4-(tert-butyl)phenyl)-6-(p-tolyl)-1-tosyl-1,2,5,6-tetrahydropyridine-3-carboxamide (JW1043)] | 7.5 |

More lines, now with the values ahead:

| IC50 [µM] | SMILES |
| --- | --- |
| 4.5 | Cc1ccc(C2C(C(=O)O)=CCC(c3ccc(C(C)C)cc3)N2S(=O)(=O)c2ccc(C)cc2)cc1 (stereo unspecified) [1-(4-methylbenzenesulfonyl)-2-(4-methylphenyl)-6-[4-(propan-2-yl)phenyl]-1,2,5,6-tetrahydropyridine-3-carboxylic acid (F5)] |
| 8.2 | Cc1ccc(C2CC=C(C(=O)O)C(c3cccc(Cl)c3)N2S(=O)(=O)c2ccc(C)cc2)cc1 (stereo unspecified) [2-(3-chlorophenyl)-1-(4-methylbenzenesulfonyl)-6-(4-methylphenyl)-1,2,5,6-tetrahydropyridine-3-carboxylic acid (J13)] |
| 1.1 | Cc1ccc(S(=O)(=O)N2C(c3ccc(Cl)cc3)CC=C(C(=O)O)C2c2ccc(Br)cc2)cc1 (stereo unspecified) [2-(4-bromophenyl)-6-(4-chlorophenyl)-1-(4-methylbenzenesulfonyl)-1,2,5,6-tetrahydropyridine-3-carboxylic acid (H4)] |
| 2 | Cc1ccc(C2CC=C(C(=O)O)C(c3ccc(F)cc3)N2S(=O)(=O)c2ccc(C)cc2)cc1 (stereo unspecified) [2-(4-fluorophenyl)-1-(4-methylbenzenesulfonyl)-6-(4-methylphenyl)-1,2,5,6-tetrahydropyridine-3-carboxylic acid (O8)] |
| 1.1 | Cc1ccc(S(=O)(=O)N2C(c3ccc(C(C)C)cc3)CC=C(C(=O)O)C2c2ccc(F)cc2)cc1 (stereo unspecified) [2-(4-fluorophenyl)-1-(4-methylbenzenesulfonyl)-6-[4-(propan-2-yl)phenyl]-1,2,5,6-tetrahydropyridine-3-carboxylic acid (B6)] |
| 0.8 | Cc1ccc(C2CC=C(C(=O)O)C(c3ccc(C(C)(C)C)cc3)N2S(=O)(=O)c2ccc(C)cc2)cc1 (stereo unspecified) [2-(4-tert-butylphenyl)-1-(4-methylbenzenesulfonyl)-6-(4-methylphenyl)-1,2,5,6-tetrahydropyridine-3-carboxylic acid (P11)] |
